Measurements as given in patent US8158631B2, “Heterocyclic antiviral compounds” (Roche Palo Alto LLC, priority 2009, dated 2012).

Assays:
in vitro = conditions: human
[1] = test system: HCV replicon cells (2209-23), genotype 1b replicon in Huh7 cells; assay: HCV replicon assay (Renilla luciferase reporter); format: cell-based, HCV genotype 1b; human hepatoma Huh7 cells; conditions: Hepatitis C virus, Huh-7, 72 h, 2209-23 cells, three days incubation
[2] = molecular target: T1, HCV polymerase (NS5B570n-Con1) (Hepatitis C virus genotype 1b, UniProt Q9WMX2); assay: HCV NS5B RNA polymerase activity (HCV Polymerase Assay); format: biochemical, HCV Con1 strain
T1 construct: contains a 21 amino acid deletion at the C-terminus relative to the full-length HCV polymerase; made in house; host or cells: E. coli strain BL21(DE) pLysS, plasmid pET17b
Protocol: The enzymatic activity of HCV polymerase (NS5B570n-Con1) was measured as the incorporation of radiolabeled nucleotide monophosphates into acid insoluble RNA products. Unincorporated radiolabeled substrate was removed by filtration and scintillant was added to the washed and dried filter plate containing radiolabeled RNA product. The amount of RNA product generated by NS5B570-Con1 at the end of the reaction was directly proportional to the amount of light emitted by the scintillant.
The N-terminal 6-histidine tagged HCV polymerase, derived from HCV Con1 strain, genotype 1b (NS5B570n-Con1) contains a 21 amino acid deletion at the C-terminus relative to the full-length HCV polymerase and was purified from E. coli strain BL21(DE) pLysS. The construct, containing the coding sequence of HCV NS5B Con1 (GenBank accession number AJ242654) was inserted into the plasmid construct pET17b, downstream of a T7 promoter expression cassette and transformed into E. coli. A single colony was grown overnight as a starter culture and later used inoculate 10 L of LB media supplemented with 100 μg/mL ampicillin at 37° C. Protein expression was induced by the addition of 0.25 mM isopropyl-β-D-thiogalactopyranoside (IPTG) when optical density at […] of the culture was between 0.6 and 0.8 and cells were harvested after 16 to 18 h at 30° C. NS5B570n-Con1 was purified to homogeneity using a three-step protocol including subsequent column chromatography on Ni-NTA, SP-Sepharose HP and Superdex 75 resins.
Each 50 μL enzymatic reaction contained 20 nM RNA template derived from the complementary sequence of the Internal Ribosome Entry Site (cIRES), 20 nM NS5B570n-Con1 enzyme, 0.5 μCi of tritiated UTP (Perkin Elmer catalog no. TRK-412; specific activity: 30 to 60 Ci/mmol; stock solution concentration from 7.5×10^−5 M to 20.6×10^−6 M), 1 μM each ATP, CTP, and GTP, 40 mM Tris-HCl pH 8.0, 40 mM NaCl, 4 mM DTT (dithiothreitol), 4 mM MgCl2, and 5 μL of compound serial diluted in DMSO. Reaction mixtures were assembled in 96-well filter plates (cat #MADVNOB, Millipore Co.) and incubated for 2 h at 30° C. Reactions were stopped by addition of 10% final (v/v) trichloroacetic acid and incubated for 40 min at 4° C. Reactions were filtered, washed with 8 reaction volumes of 10% (v/v) trichloroacetic acetic acid, 4 reaction volumes of 70% (v/v) ethanol, air dried, and 25 μL of scintillant (Microscint 20, Perkin-Elmer) was added to each reaction well.
The amount of light emitted from the scintillant was converted to counts per minute (CPM) on a Topcount® plate reader (Perkin-Elmer, Energy Range: Low, Efficiency Mode Normal, Count Time: 1 min, Background Subtract: none, Cross talk reduction: Off).
Data was analyzed in Excel® (Microsoft®) and ActivityBase® (Idbs®). The reaction in the absence of enzyme was used to determine the background signal, which was subtracted from the enzymatic reactions. Positive control reactions were performed in the absence of compound, from which the background corrected activity was set as 100% polymerase activity. All data was expressed as a percentage of the positive control.
The compound concentration at which the enzyme-catalyzed rate of RNA synthesis was reduced by 50% (IC50) was calculated by fitting equation (i) to the data where“Y”
[formula] corresponds to the relative enzyme activity (in %), “% Min” is the residual relative activity at saturating compound concentration, “% Max” is the relative maximum enzymatic activity, “X” corresponds to the compound concentration, and “S” is the Hill coefficient (or slope).

COc1c(/C=C/c2ccc(NS(C)(=O)=O)cc2)cc(N2CCC(C)(C)NC2=O)cc1C(C)(C)C [Compound I-5, N-(4-{(E)-2-[3-tert-Butyl-5-(4,4-dimethyl-2-oxo-tetrahydro-pyrimidin-1-yl)-2-methoxy-phenyl]-vinyl}-phenyl)-methanesulfonamide]
CC50 (in vitro): 13800 nM | IC50 [1]: 19 nM | IC50 [2]: 1 nM

COc1c(/C=C/c2ccc(NS(C)(=O)=O)cc2)cc(-n2ccncc2=O)cc1C(C)(C)C [Compound I-13]
CC50 (in vitro): 21400 nM | IC50 [1]: 18.6 nM | IC50 [2]: 0.31 nM | melting point: 214 to 216 °C
